13 molecules from patent US20240116985A1, “STAPLED PEPTIDES AND METHODS THEREOF” (priority 2020, published 2024) can be followed below.

In general, EC50 refers to the concentration needed to bring the measured effect to its halfway point. High values mean a less potent agent, low ones a more potent agent. In general, chromatographic logD refers to lipophilicity estimated from chromatographic retention. A lower chromatographic logD goes with a more hydrophilic compound.

The target in series [1] is T1, full-length B-Catenin (Uniprot ID P35222) (Homo sapiens, UniProt P35222).
T1 construct: 65 nM full-length B-Catenin (Uniprot ID P35222)
T1 sequence (P35222 1-781): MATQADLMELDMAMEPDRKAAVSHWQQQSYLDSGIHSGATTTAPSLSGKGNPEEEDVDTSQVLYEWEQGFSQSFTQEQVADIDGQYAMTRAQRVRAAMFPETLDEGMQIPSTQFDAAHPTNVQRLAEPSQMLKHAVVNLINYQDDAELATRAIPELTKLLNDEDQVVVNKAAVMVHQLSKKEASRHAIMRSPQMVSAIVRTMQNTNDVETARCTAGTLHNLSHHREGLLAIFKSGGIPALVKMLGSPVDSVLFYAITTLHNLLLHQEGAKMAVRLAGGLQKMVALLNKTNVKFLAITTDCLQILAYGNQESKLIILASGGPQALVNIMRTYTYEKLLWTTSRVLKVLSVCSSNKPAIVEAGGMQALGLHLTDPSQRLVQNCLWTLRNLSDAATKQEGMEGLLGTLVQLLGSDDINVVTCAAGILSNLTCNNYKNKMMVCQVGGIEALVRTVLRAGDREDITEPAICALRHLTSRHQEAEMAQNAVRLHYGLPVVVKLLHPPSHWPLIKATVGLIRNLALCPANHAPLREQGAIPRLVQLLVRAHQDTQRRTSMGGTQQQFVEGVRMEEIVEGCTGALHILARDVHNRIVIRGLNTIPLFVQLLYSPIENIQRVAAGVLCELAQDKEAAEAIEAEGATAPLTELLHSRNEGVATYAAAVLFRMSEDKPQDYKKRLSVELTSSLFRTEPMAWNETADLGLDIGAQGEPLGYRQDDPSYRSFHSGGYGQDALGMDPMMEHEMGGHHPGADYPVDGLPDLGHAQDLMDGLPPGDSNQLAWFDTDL
Briefly: Alphascreen binding assay (beta-catenin / biotin-TCF4 10-53). The essentials:
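AlphaScreen (Ni-chelate beads) competition in 50 mM Tris pH 8.0, 250 mM NaCl with detergents and 0.1% BSA. Peptide titrated 10 uM–5 nM against 65 nM human β-catenin bound to 10 nM biotinylated TCF4 10-53, 15 min then 60 min with beads, both at 20 °C; 1:1 Hill-slope fit.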
In general terms: Bead proximity is the source of the signal in Alpha formats.

The nature of the next series: CHI Log D procedure. To be noted: for CHI Log D: pH 7.4; for chromatographic logD: pH 7.4, CHI Log D. In kind it is physicochemical.

In series [1], `CC(=O)N1CCC[C@]12CC=CCCCC1(CCCC=CCCCCCC[C@@](C)(C(=O)N[C@@H](Cc3ccccc3)C(=O)N[C@@H](Cc3c[nH]c4ccc(C5CC5)cc34)C(=O)N[C@@H](CCC(N)=O)C(N)=O)NC(=O)[C@H](C(C)C)NC(=O)[C@H](Cc3ccccc3)NC(=O)[C@H](C)NC(=O)[C@H](C)NC(=O)[C@H](CCC(=O)O)NC(=O)[C@H](CC(=O)O)NC1=O)NC(=O)[C@H](C)NC(=O)[C@H](CC(=O)O)NC2=O` (stereo partly drawn) [I-171, Ac-PL3-Asp-Ala-B5-Asp-Glu-Ala-Ala-Phe-Val-S8-Phe-5CpW-Gln-NH2] gave an EC50 of 2.07 µM. The “CHI Log D” value in the series “CHI Log D procedure” is 2.204.

The molecule `CC(=O)N1CCC[C@]12CC=CCCCC1(CCCC=CCCCCCC[C@@](C)(C(=O)N[C@@H](Cc3ccccc3)C(=O)N[C@@H](Cc3ccc4ccccc4c3)C(=O)N[C@@H](C)C(N)=O)NC(=O)[C@H](C)NC(=O)[C@H](Cc3ccc(F)c(F)c3)NC(=O)[C@H](C)NC(=O)[C@H](C)NC(=O)[C@H](CCC(=O)O)NC(=O)[C@H](CC(=O)O)NC1=O)NC(=O)[C@H](C)NC(=O)[C@H](CC(=O)O)NC2=O` (stereo partly drawn) [I-185, Ac-PL3-Asp-Ala-B5-Asp-Glu-Ala-Ala-34FF-Ala-S8-Phe-2NapA-Ala-NH2] returned an EC50 in series [1] of 2.66 µM. The chromatographic logD in “CHI Log D procedure” is 2.3.

The molecule `CC(=O)N1CCC[C@]12CC=CCCCC1(CCCC=CCCCCCC[C@@](C)(C(=O)N[C@@H](Cc3ccccc3)C(=O)N[C@@H](Cc3c[nH]c4ccccc34)C(=O)N[C@@H](C)C(N)=O)NC(=O)[C@H](C)NC(=O)[C@H](Cc3ccccc3)NC(=O)[C@H](C)NC(=O)[C@H](C)NC(=O)[C@H](CCC(=O)O)NC(=O)[C@H](CC(=O)O)NC1=O)NC(=O)[C@H](C)NC(=O)[C@H](CC(=O)O)NC2=O` (stereo partly drawn) [I-186, Ac-PL3-Asp-Ala-B5-Asp-Glu-Ala-Ala-Phe-Ala-S8-Phe-Trp-Ala-NH2] came in with an EC50 in series [1] of 0.518 µM. The “CHI Log D” value in “CHI Log D procedure” was found to be 2.041.

The molecule `CC(=O)N1CCC[C@]12CC=CCCCC1(CCCC=CCCCCCC[C@@](C)(C(=O)N[C@@H](Cc3ccccc3)C(=O)N[C@@H](Cc3c[nH]c4ccccc34)C(=O)N[C@@H](CCC(N)=O)C(N)=O)NC(=O)[C@H](C(C)C)NC(=O)[C@H](Cc3ccccc3)NC(=O)[C@H](C)NC(=O)[C@H](C)NC(=O)[C@H](CCC(=O)O)NC(=O)[C@H](CCc3ccccc3)NC1=O)NC(=O)[C@H](C)NC(=O)[C@H](CC(=O)O)NC2=O` (stereo partly drawn) [I-197, Ac-PL3-Asp-Ala-B5-hPhe-Glu-Ala-Ala-Phe-Val-S8-Phe-Trp-Gln-NH2] yielded an EC50 in series [1] of 6.15 µM. In addition, the “CHI Log D” value in “CHI Log D procedure” amounted to 3.809.

`CC(=O)N1CCC[C@]12CC=CCCCC1(CCCC=CCCCCCC[C@@](C)(C(=O)N[C@@H](Cc3ccccc3)C(=O)N[C@@H](Cc3c[nH]c4ccccc34)C(=O)N[C@@H](CCC(N)=O)C(N)=O)NC(=O)[C@H](C(C)C)NC(=O)[C@H](Cc3ccccc3)NC(=O)[C@H](C)NC(=O)[C@H](C)NC(=O)[C@H](CCC(=O)O)NC(=O)[C@H](CC(=O)O)NC1=O)NC(=O)[C@H](C)NC(=O)[C@H](CC(N)=O)NC2=O` (stereo partly drawn) [I-199, Ac-PL3-Asn-Ala-B5-Asp-Glu-Ala-Ala-Phe-Val-S8-Phe-Trp-Gln-NH2] gave an EC50 in series [1] of 0.796 µM. Moreover, in the series “CHI Log D procedure”, the “CHI Log D” value was 2.262.

`CC(=O)N1CCC[C@]12CC=CCCCC1(CCCC=CCCCCCC[C@@](C)(C(=O)N[C@@H](Cc3ccccc3)C(=O)N[C@@H](Cc3c[nH]c4ccccc34)C(=O)N[C@@H](CCC(N)=O)C(N)=O)NC(=O)[C@H](C(C)C)NC(=O)[C@H](Cc3ccccc3)NC(=O)[C@H](C)NC(=O)[C@H](C)NC(=O)[C@H](CCC(=O)O)NC(=O)[C@H](CC(=O)O)NC1=O)NC(=O)[C@H](C)NC(=O)[C@H](CC(N)=O)NC2=O` (stereo partly drawn) [I-200, Ac-PL3-Asn-Ala-B5-Asp-Glu-Ala-Ala-Phe-Val-S8-Phe-Trp-Gln-NH2] returned an EC50 in series [1] of 0.173 µM. In addition, the “CHI Log D” value in the series “CHI Log D procedure” is on record as 2.278.

With `CC(=O)N1CCC[C@]12CC=CCCCC1(CCCC=CCCCCCC[C@@](C)(C(=O)N[C@@H](Cc3ccccc3)C(=O)N[C@@H](Cc3c[nH]c4ccccc34)C(=O)N[C@@H](CCC(N)=O)C(N)=O)NC(=O)[C@H](C(C)C)NC(=O)[C@H](Cc3ccccc3)NC(=O)[C@H](C)NC(=O)[C@H](C)NC(=O)[C@H](CCC(=O)O)NC(=O)[C@H](CC(=O)O)NC1=O)NC(=O)[C@H](C)NC(=O)[C@H](Cc1ccccc1)NC2=O` (stereo partly drawn) [I-201, Ac-PL3-Phe-Ala-B5-Asp-Glu-Ala-Ala-Phe-Val-S8-Phe-Trp-Gln-NH2], a half-maximal response in series [1] (EC50) required 6.16 µM. Besides, the chromatographic logD in the series “CHI Log D procedure” is 2.94.

Consider `CC(=O)N1CCC[C@]12CC=CCCCC1(CCCC=CCCCCCC[C@@](C)(C(=O)N[C@@H](Cc3ccccc3)C(=O)N[C@@H](Cc3c[nH]c4ccccc34)C(=O)N[C@@H](CCC(N)=O)C(N)=O)NC(=O)[C@H](C(C)C)NC(=O)[C@H](Cc3ccccc3)NC(=O)[C@H](C)NC(=O)[C@H](C)NC(=O)[C@H](CCC(=O)O)NC(=O)[C@H](Cc3c[nH]cn3)NC1=O)NC(=O)[C@H](C)NC(=O)[C@H](CC(=O)O)NC2=O` (stereo partly drawn) [I-206, Ac-PL3-Asp-Ala-B5-His-Glu-Ala-Ala-Phe-Val-S8-Phe-Trp-Gln-NH2], for which, in series [1], a half-maximal response (EC50) required 2.14 µM. The same molecule registered a chromatographic logD in “CHI Log D procedure” of 2.41.

`CC(=O)N1CCC[C@]12CC=CCCCC1(CCCC=CCCCCCC[C@@](C)(C(=O)N[C@@H](Cc3ccccc3)C(=O)N[C@@H](Cc3c[nH]c4ccccc34)C(=O)N[C@@H](CCC(N)=O)C(N)=O)NC(=O)[C@H](C(C)C)NC(=O)[C@H](Cc3cc(F)c(F)c(F)c3)NC(=O)[C@H](C)NC(=O)[C@H](C)NC(=O)[C@H](CCC(=O)O)NC(=O)[C@H](CC(=O)O)NC1=O)NC(=O)[C@H](C)NC(=O)[C@H](CC(=O)O)NC2=O` (stereo partly drawn) [I-209, Ac-PL3-Asp-Ala-B5-Asp-Glu-Ala-Ala-345FF-Val-S8-Phe-Trp-Gln-NH2] had an EC50 in series [1] of 1.4 µM. Also, in the series “CHI Log D procedure”, the “CHI Log D” value amounted to 2.088.

On to `CC(=O)N1CCC[C@]12CC=CCCCC1(CCCC=CCCCCCC[C@@](C)(C(=O)N[C@@H](Cc3ccccc3)C(=O)N[C@@H](Cc3c[nH]c4ccccc34)C(=O)N[C@@H](CCC(N)=O)C(N)=O)NC(=O)[C@H](C(C)C)NC(=O)[C@H](Cc3cc(F)c(F)c(F)c3)NC(=O)[C@H](C)NC(=O)[C@H](C)NC(=O)[C@H](CCC(=O)O)NC(=O)[C@H](CC(=O)O)NC1=O)NC(=O)[C@H](C)NC(=O)[C@H](CC(=O)O)NC2=O` (stereo partly drawn) [I-210, Ac-PL3-Asp-Ala-B5-Asp-Glu-Ala-Ala-345FF-Val-S8-Phe-Trp-Gln-NH2], for which the EC50 in series [1] was determined as 1.4 µM. For the same molecule, in “CHI Log D procedure”, the “CHI Log D” value is on record as 2.088.

In series [1], `CC(=O)N1CCC[C@]12CC=CCCCC1(CCCC=CCCCCCC[C@@](C)(C(=O)N[C@@H](Cc3ccccc3)C(=O)N[C@@H](Cc3c[nH]c4ccccc34)C(=O)N[C@@H](CCC(N)=O)C(N)=O)NC(=O)[C@H](C(C)C)NC(=O)[C@H](Cc3cc(F)c(F)c(F)c3)NC(=O)[C@H](C)NC(=O)[C@H](C)NC(=O)[C@H](CCC(=O)O)NC(=O)[C@H](CC(=O)O)NC1=O)NC(=O)[C@H](C)NC(=O)[C@H](CC(=O)O)NC2=O` (stereo partly drawn) [I-211, Ac-PL3-Asp-Ala-B5-Asp-Glu-Ala-Ala-345FF-Val-S8-Phe-Trp-Gln-NH2] yielded an EC50 of 0.367 µM. The “CHI Log D” value in the series “CHI Log D procedure” is on record as 2.101.

`CC(=O)N1CCC[C@]12CC=CCCCC1(CCCC=CCCCCCC[C@@](C)(C(=O)N[C@@H](Cc3ccccc3)C(=O)N[C@@H](Cc3c[nH]c4ccccc34)C(=O)N[C@@H](CCC(N)=O)C(N)=O)NC(=O)[C@H](C(C)C)NC(=O)[C@H](Cc3cc(F)c(F)c(F)c3)NC(=O)[C@H](C)NC(=O)[C@H](C)NC(=O)[C@H](CCC(=O)O)NC(=O)[C@H](CC(=O)O)NC1=O)NC(=O)[C@H](C)NC(=O)[C@H](CC(=O)O)NC2=O` (stereo partly drawn) [I-212, Ac-PL3-Asp-Ala-B5-Asp-Glu-Ala-Ala-345FF-Val-S8-Phe-Trp-Gln-NH2] gave a concentration for a half-maximal effect (EC50) in series [1] of 0.367 µM. Further, the “CHI Log D” value in the series “CHI Log D procedure” worked out at 2.101.

`CC(=O)N[C@@H](Cc1ccccc1)C(=O)N[C@@H](CC(=O)O)C(=O)N[C@@H](C)C(=O)N[C@]1(C)CCCCCCC=CCOC(=O)N2CC[C@@](C(=O)N[C@@H](Cc3ccccc3)C(=O)N[C@@H](Cc3c[nH]c4ccccc34)C(=O)N[C@@H](CCC(N)=O)C(N)=O)(C2)NC(=O)[C@H]([C@@H](C)O)NC(=O)[C@H](Cc2ccccc2)NC(=O)[C@H](C)NC(=O)[C@H](C)NC(=O)[C@H](CC(=O)O)NC(=O)[C@H](CC(=O)O)NC1=O` [I-221, Ac-Phe-Asp-Ala-R8-Asp-Asp-Ala-Ala-Phe-Thr-PyrS-Phe-Trp-Gln-NH2] gave an EC50 in series [1] of 6.58 µM. Also, the “CHI Log D” value in “CHI Log D procedure” worked out at 1.34.
